Assay: Two-period crossover pharmacokinetics of nalmefene 3 mg IN vs 1.0 mg IM (Example 12)
Details: human, plasma, plasma; for Vd/F: Vz/F; for concentration at 0.5 h: 0.500 h
[1] = im, 1 mg, Treatment B: IM 1.0 mg nalmefene hydrochloride, Geo. Mean, n=68
[2] = im, 1 mg, Treatment B: IM 1.0 mg nalmefene hydrochloride, Mean, n=68
[3] = intramuscular, 1 mg, Mean plasma concentration, Treatment B 1.0 mg IM
[4] = intramuscular, 1 mg, Median plasma concentration, Treatment B 1.0 mg IM
[5] = other: intranasal, 3 mg, Mean plasma concentration, Treatment A 3.0 mg IN
[6] = other: intranasal, 3 mg, Median plasma concentration, Treatment A 3.0 mg IN

For `C=C1CC[C@@]2(O)[C@H]3Cc4ccc(O)c5c4[C@@]2(CCN3CC2CC2)[C@H]1O5` [Nalmefene, 17-cyclopropylmethyl-4,5α-epoxy-6-methylenemorphinan-3,14-diol], the AUC(0-t) (im, 1 mg, AUClast, Treatment B: IM 1.0 mg nalmefene hydrochloride, Mean, n=68) was 16.3 ng·h/mL, the AUC(0-t) (im, 1 mg, AUClast, Treatment B: IM 1.0 mg nalmefene hydrochloride, Median, n=68) was 15.9 ng·h/mL and the Cmax (im, 1 mg, GeoMean, Treatment B 1.0 mg IM (Ref)) was 1.5 ng/mL. It also gave a Cmax [1] of 1.5 ng/mL, a Cmax [2] of 1.77 ng/mL and a Cmax (im, 1 mg, Treatment B: IM 1.0 mg nalmefene hydrochloride, Median, n=68) of 1.52 ng/mL. The half-life (im, 1 mg, T1/2, Treatment B: IM 1.0 mg nalmefene hydrochloride, Geo. Mean, n=68) was 10.4 h, the half-life (im, 1 mg, T1/2, Treatment B: IM 1.0 mg nalmefene hydrochloride, Mean, n=68) was 10.6 h and the half-life (im, 1 mg, T1/2, Treatment B: IM 1.0 mg nalmefene hydrochloride, Median, n=68) was 9.98 h. The Tmax (im, 1 mg, Tmax, Treatment B: IM 1.0 mg nalmefene hydrochloride, Geo. Mean, n=68) was 0.603 h, the Vd/F [1] was 894 L and the Vd/F [2] was 916 L. It also gave a concentration at 0 h [3] of 0.00352 ng/mL, a concentration at 0.5 h [3] of 1.11 ng/mL and a concentration at 2 h [3] of 0.972 ng/mL. It also gave a concentration at 3 h [3] of 0.896 ng/mL, a concentration at 4 h [3] of 0.824 ng/mL and a concentration at 6 h [3] of 0.688 ng/mL. The concentration at 8 h [3] was 0.67 ng/mL, the concentration at 36 h [3] was 0.0968 ng/mL and the concentration at 12 h [3] was 0.538 ng/mL. For the same compound, the concentration at 18 h [3] was 0.36 ng/mL, the concentration at 24 h [3] was 0.223 ng/mL and the concentration at 48 h [3] was 0.0491 ng/mL. The concentration at 0 h [4] was 0 ng/mL, the concentration at 0.5 h [4] was 0.945 ng/mL and the concentration at 1 h [4] was 0.829 ng/mL. The concentration at 2 h [4] was 0.858 ng/mL, the concentration at 3 h [4] was 0.818 ng/mL and the concentration at 4 h [4] was 0.77 ng/mL. It also gave a concentration at 6 h [4] of 0.673 ng/mL, a concentration at 8 h [4] of 0.629 ng/mL and a concentration at 36 h [4] of 0.0915 ng/mL. The concentration at 12 h [4] was 0.516 ng/mL, the concentration at 18 h [4] was 0.341 ng/mL and the concentration at 24 h [4] was 0.203 ng/mL. For the same compound, the concentration at 48 h [4] was 0.0436 ng/mL, the half-life (other: intranasal (nasal spray), 3 mg, Plasma half-life, 3 mg IN) was about 11 h and the AUC(0-t) (other: intranasal, 3 mg, AUC0-5 min, GeoMean, Treatment A 3.0 mg IN (Test)) was 0.06 ng·h/mL. It also gave an AUC(0-t) (other: intranasal, 3 mg, AUC0-5 min, Treatment A: 3.0 mg nalmefene hydrochloride IN, Geo. Mean, n 66) of 0.0599 ng·h/mL, an AUC(0-t) (other: intranasal, 3 mg, AUC0-5 min, Treatment A: 3.0 mg nalmefene hydrochloride IN, Median, n 66) of 0.0546 ng·h/mL and an AUC(0-t) (other: intranasal, 3 mg, AUC0-10 min, GeoMean, Treatment A 3.0 mg IN (Test)) of 0.514 ng·h/mL. For the same compound, the AUC(0-t) (other: intranasal, 3 mg, AUC0-10 min, Treatment A: 3.0 mg nalmefene hydrochloride IN, Geo. Mean, n 66) was 0.523 ng·h/mL, the AUC(0-t) (other: intranasal, 3 mg, AUC0-10 min, Treatment A: 3.0 mg nalmefene hydrochloride IN, Mean, n 66) was 0.787 ng·h/mL and the AUC(0-t) (other: intranasal, 3 mg, AUC0-10 min, Treatment A: 3.0 mg nalmefene hydrochloride IN, Median, n 66) was 0.537 ng·h/mL. The AUC(0-t) (other: intranasal, 3 mg, AUC0-15 min, GeoMean, Treatment A 3.0 mg IN (Test)) was 1.19 ng·h/mL, the AUC(0-t) (other: intranasal, 3 mg, AUC0-15 min, Treatment A: 3.0 mg nalmefene hydrochloride IN, Geo. Mean, n 66) was 1.2 ng·h/mL and the AUC(0-t) (other: intranasal, 3 mg, AUC0-15 min, Treatment A: 3.0 mg nalmefene hydrochloride IN, Mean, n 66) was 1.6 ng·h/mL. For the same compound, the AUC(0-t) (other: intranasal, 3 mg, AUC0-15 min, Treatment A: 3.0 mg nalmefene hydrochloride IN, Median, n 66) was 1.19 ng·h/mL, the AUC(0-t) (other: intranasal, 3 mg, AUC0-20 min, GeoMean, Treatment A 3.0 mg IN (Test)) was 1.87 ng·h/mL and the AUC(0-t) (other: intranasal, 3 mg, AUC0-20 min, Treatment A: 3.0 mg nalmefene hydrochloride IN, Geo. Mean, n 66) was 1.89 ng·h/mL. It also gave an AUC(0-t) (other: intranasal, 3 mg, AUC0-20 min, Treatment A: 3.0 mg nalmefene hydrochloride IN, Mean, n 66) of 2.34 ng·h/mL, an AUC(0-t) (other: intranasal, 3 mg, AUC0-20 min, Treatment A: 3.0 mg nalmefene hydrochloride IN, Median, n 66) of 1.85 ng·h/mL and an AUC(0-t) (other: intranasal, 3 mg, AUC0-30 min, GeoMean, Treatment A 3.0 mg IN (Test)) of 3.04 ng·h/mL. The AUC(0-t) (other: intranasal, 3 mg, AUC0-30 min, Treatment A: 3.0 mg nalmefene hydrochloride IN, Geo. Mean, n 66) was 3.07 ng·h/mL, the AUC(0-t) (other: intranasal, 3 mg, AUC0-30 min, Treatment A: 3.0 mg nalmefene hydrochloride IN, Mean, n 66) was 3.55 ng·h/mL and the AUC(0-t) (other: intranasal, 3 mg, AUC0-30 min, Treatment A: 3.0 mg nalmefene hydrochloride IN, Median, n 66) was 3.04 ng·h/mL. The AUC(0-t) (other: intranasal, 3 mg, AUC0-[…], Treatment A: 3.0 mg nalmefene hydrochloride IN, Mean, n 66) was 0.0193 ng·h/mL, the AUC(0-t) (other: intranasal, 3 mg, AUCLast, GeoMean, Treatment A 3.0 mg IN (Test)) was 38.9 ng·h/mL and the AUC(0-inf) (other: intranasal, 3 mg, AUCinf, GeoMean, Treatment A 3.0 mg IN (Test)) was 40.3 ng·h/mL. The Cmax (other: intranasal, 3 mg, GeoMean, Treatment A 3.0 mg IN (Test)) was 10.3 ng/mL, the concentration at 0 h [5] was 0.00146 ng/mL and the concentration at 0.5 h [5] was 6.25 ng/mL. The concentration at 1 h [5] was 4.64 ng/mL, the concentration at 2 h [5] was 4.03 ng/mL and the concentration at 3 h [5] was 3.17 ng/mL. For the same compound, the concentration at 4 h [5] was 2.52 ng/mL, the concentration at 6 h [5] was 1.69 ng/mL and the concentration at 8 h [5] was 1.23 ng/mL. It also gave a concentration at 36 h [5] of 0.171 ng/mL, a concentration at 12 h [5] of 0.87 ng/mL and a concentration at 18 h [5] of 0.529 ng/mL. It also gave a concentration at 24 h [5] of 0.366 ng/mL, a concentration at 48 h [5] of 0.0875 ng/mL and a concentration at 0 h [6] of 0 ng/mL. It also gave a concentration at 0.5 h [6] of 5.86 ng/mL, a concentration at 1 h [6] of 4.68 ng/mL and a concentration at 2 h [6] of 3.99 ng/mL. For the same compound, the concentration at 3 h [6] was 3.13 ng/mL, the concentration at 4 h [6] was 2.49 ng/mL and the concentration at 6 h [6] was 1.65 ng/mL. For the same compound, the concentration at 8 h [6] was 1.18 ng/mL, the concentration at 36 h [6] was 0.165 ng/mL and the concentration at 12 h [6] was 0.832 ng/mL. For the same compound, the concentration at 18 h [6] was 0.518 ng/mL, the concentration at 24 h [6] was 0.341 ng/mL and the concentration at 48 h [6] was 0.0843 ng/mL.
